Measured values published in patent US20150064273A1, “Mesenchymal Stem Cells Conditioned Medium and Methods of Generating and Using the Same” (Gamida-Cell Ltd., priority 2012, published 2015).

How the values were obtained:
Format in all cases: cell-based
mesenchymal stem cells [1] = assay: MSC cell size (Cedex cell counter) and granularity (side scatter FACS)
Description: Measurement of cell size: Cell size was measured using Cedex Automated Cell Counter (Innovatis). The cells were diluted 1:2 in Trypan Blue (Sigma) and cell size was measured automatically under microscope. Measurement of granularicity: Following trypsin treatment, the cells were analyzed for granularicity by side scatter FACS.

mesenchymal stem cells [2] = assay: Senescence evaluation assay of cultured MSCs; conditions: MSCs cultured with nicotinamide
Description: Senescence evaluation assay: Cultured MSCs were stained using the Senescence beta-Galactosidase Staining Kit (Cell Signaling). The cells are fixed and stained for detection of beta-Galactosidase activity at pH 6 using X-Gal and incubation overnight in 37° C. in dry incubator.

[3] = system: bone marrow derived mesenchymal stem cells; assay: Bone marrow derived MSC seeding and expansion with nicotinamide
Description: FIG. 11 is a bar graph illustrating % of BM derived adherent cells expressing mesenchymal stem cells markers in culture seeded +/−NAM, prior to the first passage. Mononuclear cells were isolated from bone marrow using Ficoll and the “plastic adherence” method in the presence or absence of Nicotinamide. Non-adherent cells were washed away 3-4 days later and the media was replaced every 3-4 days. FACS analysis was performed in order to obtain expression levels of surface molecules prior to the first passage (8 days post-seeding). Isolation: Bone marrow derived and adipose tissue derived mesenchymal cells were isolated based on their plastic adherence potential in expansion medium containing: High glucose DMEM and 10% Fetal Bovine Serum (FBS, Hyclone, Logan, Utah, USA) supplemented with 0.05 mg/ml Gentamicin (Sigma) and 2 mM L-glutamine (Biological Industries, Israel). Cells were allowed to adhere for 3-4 days and non-adherent cells were washed out with medium changes. The medium was further exchanged with fresh medium every 3-4 days. Maintenance and expansion: Once adherent cells reached approximately 80-90% confluency, they were detached with 0.25% trypsin-EDTA (Sigma), washed twice in DMEM and 10% Fetal Bovine Serum, with centrifugation, 400 g, 5 minutes, and re-plated at a 1:2 to 1:1000 dilution under the same culture conditions. Measurement of number of cells in culture: Cell number was measured using Cedex Automated Cell Counter (Innovatis). The cells were diluted 1:2 in Trypan Blue (Sigma) and cell number was measured automatically under microscope. Treatment of mesenchymal cultures with nicotinamide: Mesenchymal cultures were initiated as described above, […], or in combination with growth factors or growth factors alone, incubated at 37° C. in a humidified atmosphere of 5% CO2 in air. At each passage and at each medium exchange, the cultures were supplemented with mesenchymal medium, nicotinamide and growth factors.

[4] = system: Transforming Growth Factor-β (TGFβ); assay: TGFβ content of MSC conditioned medium by ELISA; conditions: passage 4; 5 mM NAM, 50 ng/ml FGF4; serum- and FGF4-free medium for 24 hours
Description: (§1) FIG. 23 is a bar graph illustrating enhancement of Transforming Growth Factor-β (TGFβ) content of conditioned medium from nicotinamide and FGF4-treated MSC cultures. Bone marrow mesenchymal stem cells were isolated and cultured as in FIG. 22 above. Cultured media was changed to medium without fetal bovine serum or FGF4 24 hours prior to passage 4, collected from the passage 4 cultures and assayed for TGFβ content by ELISA. −NAM, −FGF4=control; +NAM−FGF4=5 mM NAM, +NAM+FGF4=5 mM NAM+50 ng/ml FGF4. Note the significant effect of combined FGF4 and nicotinamide on TGFβ secretion; Mesenchymal stem cells cultured with nicotinamide and FGF4 have enhanced expansion potential, and maintain an undifferentiated state, compared to mesenchymal stem cells cultured in unsupplemented medium, or mesenchymal stem cells cultured with added nicotinamide alone. In order to assess whether mesenchymal stem cells cultured with nicotinamide or nicotinamide and FGF4 modify the culture medium in a unique manner, secretion of biologically active molecules into the culture medium was measured by ELISA, after depletion of the FGF4 from the medium.

mesenchymal stem cells [5] = assay: In-vitro wound healing assay on MSC cultures; conditions: passage 3; 4 days post wound formation
Description: FIGS. 20A-B are photographs illustrating results of an in vitro wound healing assay which was performed on MSCs cultured with (FIG. 20B) or without (FIG. 20A) nicotinamide at passage 3. Wound healing was observed 4 days post wound formation. In-vitro wound healing assay: Wound was performed in MSCs cultures at ˜70% confluence using 200 μl or 1000 μl tip. Four days later the cells were fixated using 10% cold Formalin (Sigma) and stained with Harris Hematoxylin (Sigma). The in-vitro wound healing process was evaluated using microscope.

[6] = system: Keratinocyte Growth Factor (KGF); assay: KGF content of MSC conditioned medium by ELISA; conditions: passage 4; 5 mM NAM, 50 ng/ml FGF4; serum- and FGF4-free medium for 24 hours
Description: as §1, with “24” for “23”, “Keratinocyte” for “Transforming”, “Factor (KGF)” for “Factor-β (TGFβ)”, “KGF” for “TGFβ”

IL-6 = IL-6 content of MSC conditioned medium by ELISA; conditions: passage 4; 5 mM NAM, 50 ng/ml FGF4; serum- and FGF4-free medium for 24 hours
Description: FIG. 25 is a bar graph illustrating reduction of cytokine IL-6 (IL-6) content of conditioned medium from nicotinamide and FGF4-treated MSC cultures. Bone marrow mesenchymal stem cells were isolated and cultured as in FIG. 22 above. Cultured media was changed to medium without fetal bovine serum or FGF4 24 hours prior to passage 4, collected from the passage 4 cultures and assayed for IL-6 content by ELISA. −NAM, −FGF4=control; +NAM−FGF4=5 mM NAM, +NAM+FGF4=5 mM NAM+50 ng/ml FGF4. […] In order to assess whether mesenchymal stem cells cultured with nicotinamide or nicotinamide and FGF4 modify the culture medium in a unique manner, secretion of biologically active molecules into the culture medium was measured by ELISA, after depletion of the FGF4 from the medium.

NC(=O)c1cccnc1 [nicotinamide, Nicotinamide]
cell size / undifferentiated state of MSCs cultured with FGF4 (mesenchymal stem cells [1]; FGF4 50 ng/ml, NAM 5 mM, Cedex cell counter): preserves the undifferentiated state
cell size and granularity of MSCs grown with nicotinamide vs without (mesenchymal stem cells [1]; identical conditions without nicotinamide as comparison): smaller and less granular
number of senescent cells following culture (mesenchymal stem cells [2]): reduced
expansion rate of bone marrow derived MSCs ([3]; low concentration of nicotinamide, e.g. 0.1 mM): insignificant effect
MSC doubling time ([3]; nicotinamide added from initiation of culture and at each passage): decreasing doubling time
seeding efficacy (selection) of bone marrow derived MSCs ([3]; seeded with or without nicotinamide): increased the seeding efficacy
TGF-β level in conditioned medium [4]: elevated levels
wound closure capacity of MSCs (mesenchymal stem cells [5]): higher wound closure capacity
KGF level in conditioned medium [6]: elevated levels
IL-6 secreted into conditioned medium (IL-6): reduction
